Source: patent publication US12312359B2 (Vitae Pharmaceuticals, LLC, priority 2016, dated 2025)

Target: T1, biotinylated wild-type menin and MLL-AF9 fusion protein (menin/MLL binding) (Homo sapiens, UniProt O00255)
T1 construct: made in house; host or cells: menin: E. coli; MLL-AF9-FLAG: HEK293 cells, used as cleared lysate
T1 sequence (O00255 1-610): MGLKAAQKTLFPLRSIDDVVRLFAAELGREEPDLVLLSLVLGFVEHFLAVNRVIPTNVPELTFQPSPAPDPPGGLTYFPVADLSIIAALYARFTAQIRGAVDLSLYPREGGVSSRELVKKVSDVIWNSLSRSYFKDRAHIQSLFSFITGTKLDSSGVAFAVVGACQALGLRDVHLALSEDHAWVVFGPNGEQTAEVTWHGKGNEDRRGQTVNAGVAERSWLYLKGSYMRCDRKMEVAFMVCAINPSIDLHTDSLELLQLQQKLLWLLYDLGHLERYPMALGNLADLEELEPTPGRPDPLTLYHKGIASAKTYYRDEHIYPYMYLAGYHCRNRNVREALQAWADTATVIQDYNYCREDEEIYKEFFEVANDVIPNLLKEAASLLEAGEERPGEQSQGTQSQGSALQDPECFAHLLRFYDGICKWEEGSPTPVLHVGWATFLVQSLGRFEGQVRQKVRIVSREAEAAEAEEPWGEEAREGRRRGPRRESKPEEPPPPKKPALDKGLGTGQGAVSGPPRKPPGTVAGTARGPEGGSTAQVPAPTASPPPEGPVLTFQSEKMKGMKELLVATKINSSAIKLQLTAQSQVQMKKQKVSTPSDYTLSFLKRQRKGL
Experiment: Assay 1: menin/MLL binding AlphaLISA assay, wild-type menin
Settings: Table 30; column head does not say wild-type or mutated menin
Experimental: Potencies of inhibitor compounds against menin/MLL binding were assessed by AlphaLISA assay using biotinylated (1) wild-type menin or (2) mutated menin (described in Huang et al, 2012, Nature, 482, 542-546) and MLL-AF9 fusion protein bearing a FLAG epitope at its C-terminus. Menin proteins were expressed in E. coli and covalently modified with biotin using EZ-Link™ Sulfo-NHS-Biotin (ThermoFisher Cat.No. 21217) according to manufacturer's protocol. MLL1-1,396 fused to AF91-92 and the C-terminal FLAG peptide was expressed in HEK293 cells and used as a lysate cleared at 21,000×g for 10 min.
Compounds (2 μL of solutions in DMSO) were dispensed in white 96-well half-area plates (Corning Cat.No. 3693) and incubated for 30 min at RT with 5 nM biotinylated menin and appropriate amount of MLL-AF9-FLAG lysate in 40 μL of 50 mM Tris-HCl buffer pH 7.4 containing 5% (v/v) DMSO, 50 mM NaCl, 0.01% (w/v) bovine serum albumin (BSA) and 1 mM DTT. To this incubation mixture, 40 μL of AlphaLISA anti-FLAG acceptor (PerkinElmer Cat.No. AL112C) and streptavidin donor (PerkinElmer Cat.No. 6760002) beads (10 μg/mL each) was added and incubation continued at RT for 60 min. Alpha (amplified luminescent proximity homogeneous assay) signal was measured on an Envision multi-label plate reader at the end of the incubation. All steps were conducted under dim fluorescent light.
These percent inhibition values were regressed against compound concentrations in the assay using four parameter logit non-linear curve fitting (XLFit, IDBS). The IC50 values were derived from the curve fitting as inflection points on the dose-response curves and are set out in Table 30 below.

Question: For `CCOC(=O)c1csc(N2CCC3(CCN(c4ncncc4Oc4ccc(F)cc4-c4ccc(C#N)cc4C4CC4)C3)C2)n1` (stereo not shown) [Example 55, Ethyl 2-(7-(5-((4′-cyano-2′-cyclopropyl-5-fluoro-[1,1′-biphenyl]-2-yl)oxy)pyrimidin-4-yl)-2,7-diazaspiro[4.4]nonan-2-yl)thiazole-4-carboxylate], which IC50 is on record?
Answer: Its IC50 is ≥ 1000 nM.

Question: `CC(C)c1ncncc1-c1cc(F)ccc1Oc1cncnc1N1CCC2(CC(N3CCc4cc(F)ccc4C3)CO2)C1` (stereo not shown) [Example 157, 7-(5-(4-fluoro-2-(4-isopropylpyrimidin-5-yl)phenoxy)pyrimidin-4-yl)-3-(6-fluoro-3,4-dihydroisoquinolin-2(1H)-yl)-1-oxa-7-azaspiro[4.4]nonane] was tested. Which IC50 did it give?
Answer: Its IC50 is < 100 nM.

Question: For `CCc1ccccc1-c1cc(F)ccc1Nc1cncnc1N1CCC2(CC1)CN(CC(C)C)C2` [Example 247, N-(2′-ethyl-S-fluoro-[1,1′-biphenyl]-2-yl)-4-(2-isobutyl-2,7-diazaspiro[3.5]nonan-7-yl) pyrimidin-5-amine], which IC50 is on record?
Answer: Its IC50 is < 100 nM.

Question: For `CC(C)S(=O)(=O)Nc1cc(F)ccc1Oc1cncnc1N1CC2(CCN(C[C@H]3CC[C@H](NS(C)(=O)=O)CC3)CC2)C1` [Example 74, N-(5-fluoro-2-((4-(7-(((1r,4r)-4-(methylsulfonamido)cyclohexyl)methyl)-2,7-diazaspiro[3.5]nonan-2-yl)pyrimidin-5-yl)oxy)phenyl)propane-2-sulfonamide], which IC50 is on record?
Answer: The IC50 was < 100 nM.

Question: With `CC(C)N(C(=O)c1cc(F)ccc1Oc1cncnc1N1CCC2(CC(O)C(Cc3ccc4[nH]c(=O)[nH]c4c3)C2)C1)C(C)C` (single isomer, unassigned) [Example 23B, 5-fluoro-2-((4-(7-hydroxy-8-((2-oxo-2,3-dihydro-1H-benzo[d]imidazol-5-yl)methyl)-2-azaspiro[4.4]nonan-2-yl)pyrimidin-5-yl)oxy)-N,N-diisopropylbenzamide] as the compound, how does the IC50 read?
Answer: Its IC50 is 100 to 1000 nM.

Question: `O=c1[nH]c2ccc(CN3CCC4(CCN(c5ncncc5Oc5ccc(F)cc5-c5ccccc5C(F)(F)F)C4)C3)cc2[nH]1` (stereo not shown) [Example 50, 5-((7-(5-((5-fluoro-2′-(trifluoromethyl)-[1,1′-biphenyl]-2-yl)oxy)pyrimidin-4-yl)-2,7-diazaspiro[4.4]nonan-2-yl)methyl)-1H-benzo[d]imidazol-2(3H)-one] was tested. Which IC50 did it give?
Answer: The IC50 was < 100 nM.

Question: `CC(C)n1nccc1-c1cc(F)ccc1Oc1cncnc1N1CCC2(CCN(C(=O)C(N)C3CCCCC3)C2)C1` (single isomer, unassigned) [Example 206B, 2-amino-2-cyclohexyl-1-(7-(5-(4-fluoro-2-(1-isopropyl-1H-pyrazol-5-yl)phenoxy)pyrimidin-4-yl)-2,7-diazaspiro[4.4]nonan-2-yl)ethanone] was tested. Which IC50 did it give?
Answer: Its IC50 is 100 to 1000 nM.

Question: `CC(C)CN1CC2(CCN(c3ncncc3Nc3ccc(F)cc3-c3ccccc3OC(C)C)CC2)C1` [Example 245, N-(5-fluoro-2′-isopropoxy-[1,1′-biphenyl]-2-yl)-4-(2-isobutyl-2,7-diazaspiro[3.5]nonan-7-yl) pyrimidin-5-amine] was tested. Which IC50 did it give?
Answer: Its IC50 is < 100 nM.

Question: Which IC50 does the source give for `CP(C)(=O)c1cc(F)ccc1Oc1cncnc1N1CCC2(CCN(Cc3ccc4[nH]c(=O)[nH]c4c3)C2)C1` (stereo not shown) [Example 17, 5-((7-(5-(2-(dimethylphosphoryl)-4-fluorophenoxy)pyrimidin-4-yl)-2,7-diazaspiro[4.4]nonan-2-yl)methyl)-1H-benzo[d]imidazol-2(3H)-one] here?
Answer: The IC50 was 100 to 1000 nM.

Question: How did the IC50 turn out when `O=c1[nH]c2ccc(CN3CCC4(CCN(c5ncncc5Oc5ccc(F)cc5-c5ccccc5C5CC5)C4)C3)cc2[nH]1` (stereo not shown) [Example 49, 5-((7-(5-((2′-cyclopropyl-5-fluoro-[1,1′-biphenyl]-2-yl)oxy)pyrimidin-4-yl)-2,7-diazaspiro[4.4]nonan-2-yl)methyl)-1H-benzo[d]imidazol-2(3H)-one] was run?
Answer: Its IC50 is < 100 nM.

Question: For `CC(C)CN1CC2(CCN(c3ncncc3Nc3ccc(F)cc3-c3ccccc3C(C)C)CC2)C1` [Example 246, N-(5-fluoro-2′-isopropyl-[1,1′-biphenyl]-2-yl)-4-(2-isobutyl-2,7-diazaspiro[3.5]nonan-7-yl) pyrimidin-5-amine], which IC50 is on record?
Answer: The IC50 was < 100 nM.

Question: For `CC(C)NS(=O)(=O)c1cc(F)ccc1Oc1cncnc1N1CC2(CN(CC3CCOCC3)C2)C1` [Example 32, 5-fluoro-N-isopropyl-2-((4-(6-((tetrahydro-2H-pyran-4-yl)methyl)-2,6-diazaspiro[3.3]heptan-2-yl)pyrimidin-5-yl)oxy)benzenesulfonamide], which IC50 is on record?
Answer: Its IC50 is < 100 nM.

Question: `CNC(=O)[C@H]1CC[C@H](CN2CCC3(CC2)CN(c2ncncc2Oc2ccc(F)cc2C(=O)N(C)C(C)C)C3)CC1` [Example 21, 5-fluoro-N-isopropyl-N-methyl-2-((4-(7-(((1r,4r)-4-(methylcarbamoyl)cyclohexyl)methyl)-2,7-diazaspiro[3.5]nonan-2-yl)pyrimidin-5-yl)oxy)benzamide] was tested. Which IC50 did it give?
Answer: Its IC50 is 100 to 1000 nM.

Question: With `CC(C)n1nccc1-c1cc(F)ccc1Oc1cncnc1N1CCC2(CC(=O)N(Cc3ccc4[nH]c(=O)[nH]c4c3)C2)C1` (stereo not shown) [Example 13, 5-((7-(5-(4-fluoro-2-(1-isopropyl-1H-pyrazol-5-yl)phenoxy)pyrimidin-4-yl)-3-oxo-2,7-diazaspiro[4.4]nonan-2-yl)methyl)-1H-benzo[d]imidazol-2(3H)-one] as the compound, how does the IC50 read?
Answer: The IC50 was < 100 nM.

Question: For `CC(C)(F)c1cc(F)ccc1-c1cc(F)ccc1Oc1cncnc1N1CC2(CN(CC3CCOCC3)C2)C1` [Example 31, 2-(5-((4′,5-difluoro-2′-(2-fluoropropan-2-yl)-[1,1′-biphenyl]-2-yl)oxy)pyrimidin-4-yl)-6-((tetrahydro-2H-pyran-4-yl)methyl)-2,6-diazaspiro[3.3]heptane], which IC50 is on record?
Answer: Its IC50 is < 100 nM.

Question: How did the IC50 turn out when `CC(C)c1ccccc1-c1cc(F)ccc1Nc1cncnc1N1CCC2(CCN(Cc3ccc4[nH]c(=O)[nH]c4c3)C2)C1` (stereo not shown) [Example 243, 5-((7-(5-((5-fluoro-2′-isopropyl-[1,1′-biphenyl]-2-yl)amino)pyrimidin-4-yl)-2,7-diazaspiro [4.4]nonan-2-yl)methyl)-1,3-dihydro-2H-benzo[d]imidazol-2-one] was run?
Answer: The IC50 was < 100 nM.

Question: Which IC50 does the source give for `CCc1ccccc1-c1cc(F)ccc1Cc1cnccc1N1CC2(CN(CC3CCOCC3)C2)C1` [Example 78, 2-(3-((2′-ethyl-5-fluoro-[1,1′-biphenyl]-2-yl)methyl)pyridin-4-yl)-6-((tetrahydro-2H-pyran-4-yl)methyl)-2,6-diazaspiro[3.3]heptane] here?
Answer: The IC50 was 100 to 1000 nM.

Question: `CN(C)C(=O)c1csc(N2CCC3(CCN(c4ncncc4Oc4ccc(F)cc4-c4ccc(C#N)cc4C4CC4)C3)C2)n1` (stereo not shown) [Example 58, 2-(7-(5-((4′-cyano-2′-cyclopropyl-5-fluoro-[1,1′-biphenyl]-2-yl)oxy)pyrimidin-4-yl)-2,7-diazaspiro[4.4]nonan-2-yl)-N,N-dimethylthiazole-4-carboxamide] was tested. Which IC50 did it give?
Answer: The IC50 was 100 to 1000 nM.

Question: Which IC50 does the source give for `CC1(C)C(=O)Nc2cc(CN3CCC4(C3)CN(c3ncncc3Oc3ccc(F)cc3Cl)C4)ccc21` [Example 39, 6-((2-(5-(2-chloro-4-fluorophenoxy)pyrimidin-4-yl)-2,6-diazaspiro[3.4]octan-6-yl)methyl)-3,3-dimethylindolin-2-one] here?
Answer: Its IC50 is 100 to 1000 nM.

Question: With `Cc1noc(C(C)C)c1-c1cc(F)ccc1Nc1cncnc1N1CC2(CN(CC3CCOCC3)C2)C1` [Example 14A, N-(4-fluoro-2-(5-isopropyl-3-methylisoxazol-4-yl)phenyl)-4-(6-((tetrahydro-2H-pyran-4-yl)methyl)-2,6-diazaspiro[3.3]heptan-2-yl)pyrimidin-5-amine] as the compound, how does the IC50 read?
Answer: The IC50 was < 100 nM.

Question: `CC(C)n1nccc1-c1cc(F)ccc1Oc1cncnc1N1CCC2(CCN(C(=O)C(N)C3CCCCC3)C2)C1` (single isomer, unassigned) [Example 206C, 2-amino-2-cyclohexyl-1-(7-(5-(4-fluoro-2-(1-isopropyl-1H-pyrazol-5-yl)phenoxy)pyrimidin-4-yl)-2,7-diazaspiro[4.4]nonan-2-yl)ethanone] was tested. Which IC50 did it give?
Answer: The IC50 was 100 to 1000 nM.

Question: Which IC50 does the source give for `CC(C)N(C(=O)c1cc(F)ccc1Oc1cncnc1N1CCC2(CCC(N)(Cc3ccc(C#N)cc3)C2)C1)C(C)C` (single isomer, unassigned) [Example 22B, 2-((4-(7-amino-7-(4-cyanobenzyl)-2-azaspiro[4.4]nonan-2-yl)pyrimidin-5-yl)oxy)-5-fluoro-N,N-diisopropylbenzamide] here?
Answer: The IC50 was < 100 nM.
